In ChEMBL document CHEMBL1128125, “Inhibitors of Acyl-CoA:Cholesterol O-acyltransferase (ACAT) as hypocholesterolemic agents 14. synthesis and structure-activity relationships of a novel series of sulfonamide tetrazoles” (Bioorg Med Chem Lett, 1995):

Columns and labels:
[1] = Inhibition of Acyl coenzyme A:cholesterol acyltransferase (ACAT); parameters: species or system Oryctolagus cuniculus
Rattus norvegicus [2] = test: Tested in vivo for its effect on changing plasma cholesterol level in rats at a dose of 30 mg/kg; type: functional
Rattus norvegicus [3] = test: Tested in vivo for its effect on changing plasma cholesterol level in rats at a dose of 3 mg/kg; type: functional

IC50 [1] [nM] | SMILES | Delta TC (Rattus norvegicus [2]) [%] | Delta TC (Rattus norvegicus [3]) [%]
150 | CCCCCCCCCCCCCCn1nnc(CS(=O)(=O)Nc2c(C(C)C)cccc2C(C)C)n1 | -42 | –
180 | CCCCCCCCCCCCn1nnc(CS(=O)(=O)Nc2c(OC)cc(OC)cc2OC)n1 | -60 | –
690 | CCCCCCCCCCCCCCCCS(=O)(=O)Nc1c(OC)cc(OC)cc1OC | – | -31
52 | CCCCCCCCCCCCCCCCCC(=O)Nc1c(OC)cc(OC)cc1OC | -11 | -31

The next lines start with the compound.

SMILES | IC50 [1] [nM] | Delta TC (Rattus norvegicus [2]) [%] | Delta TC (Rattus norvegicus [3]) [%]
CCCCCCCCCCCCn1nnnc1CS(=O)(=O)Nc1c(OC)cc(OC)cc1OC | 3700 | -30 | –
CCCCCCCCCCCCn1nnc(C(Cc2ccccc2)S(=O)(=O)Nc2c(C(C)C)cccc2C(C)C)n1 (stereo unspecified) | 57 | -27 | –
CCCCCCCCCCCCn1nnc(CS(=O)(=O)Nc2c(C(C)C)cccc2C(C)C)n1 | 22 | -67 | -59
CCCCCCCCCCCCn1nnnc1CS(=O)(=O)Nc1c(C(C)C)cccc1C(C)C | 1200 | -41 | –
CCCCCCCCCCCCCCCCn1nnc(CS(=O)(=O)Nc2c(C(C)C)cccc2C(C)C)n1 | 600 | -20 | –
CCCCCCCCn1nnc(CS(=O)(=O)Nc2c(C(C)C)cccc2C(C)C)n1 | 750 | -14 | –
CCCCCCCCCCCCn1nnc(C(C)S(=O)(=O)Nc2c(C(C)C)cccc2C(C)C)n1 (stereo unspecified) | 32 | -67 | –
CCCCCCCCCCCCCCCCCCn1nnc(CS(=O)(=O)Nc2c(C(C)C)cccc2C(C)C)n1 | 7600 | -31 | –
CCCCCCCCCCCCn1nnc(C(C)(C)S(=O)(=O)Nc2c(C(C)C)cccc2C(C)C)n1 | 40 | -53 | –
CCCCCCCCCCCCn1nnc(CC(=O)Nc2c(C(C)C)cccc2C(C)C)n1 | 2.6 | -64 | -62
